# Key:
# [1] = tested on: ScAMPI (SNAP-tag®-Epac1-HaloTag®) expressed in U2OS cells; assay: cAMP FLIM-FRET sensor ScAMPI (fluorescence lifetime imaging); format: cell-based
# Description: The Epac-based cAMP sensor “Epac-S^H189”, was obtained from Addgene (Plasmid #170348). This sensor consists of a mTurquoise fluorescent protein and a tdDark Venus protein linked via the Epac1 protein.
# To construct the SNAP-tag®-Epac1-HaloTag® sensor, the sequence encoding the tdDark Venus domain in Epac-S^H189 was first replaced with the HaloTag® sequence using Nhe1 and Asc1 fragment ligation (NEB), creating a construct with mTurquoise and HaloTag® flanking the Epac1 domain (i.e, mTurquoise-Epac1-HaloTag®). […]
# To evaluate this semisynthetic system in cells, U2OS cells (ATCC) were maintained in DMEM (Corning) containing 10% v/v FBS (ATCC), 1% v/v L-glutamine (Gibco) and 1% v/v Pen/Strep (Gibco). […] Fluorescence lifetime imaging was performed with a Leica SP8 Falcon using LASX software for image acquisition and analysis. […] Fluorescence emission was collected by the HyD detector. […] Mean amplitude weighted lifetime image (τmean) was calculated by fixing the two lifetimes and performing an image fit for their respective amplitudes (a1 and a2). FRET efficiency was calculated using the mean lifetime obtained in absence (τmean,-forskolin) and (τmean,+forskolin) presence of forskolin as 1^−(τmean,-forskolin/τmean,+forskolin).
# [2] = target: T1, HaloTag® protein (Rhodococcus rhodochrous, UniProt P0A3G2, A155T/A167V/A172T/A224E/C128F/C176G/D78G/E160K/E257K/H272N/K175M/K195N/L47V/L88M/N227D/P291S/S2A/S58T/T264A/Y273L/Y87F); assay: Absorption increase of ligands on binding HaloTag® protein; format: biochemical
# T1 construct: 6xHis; made in house; host or cells: bacterial expression (pRSET-A vector, Invitrogen)
# T1 sequence (P0A3G2 other isoform, or with tags, fused parts or gaps with the stated changes): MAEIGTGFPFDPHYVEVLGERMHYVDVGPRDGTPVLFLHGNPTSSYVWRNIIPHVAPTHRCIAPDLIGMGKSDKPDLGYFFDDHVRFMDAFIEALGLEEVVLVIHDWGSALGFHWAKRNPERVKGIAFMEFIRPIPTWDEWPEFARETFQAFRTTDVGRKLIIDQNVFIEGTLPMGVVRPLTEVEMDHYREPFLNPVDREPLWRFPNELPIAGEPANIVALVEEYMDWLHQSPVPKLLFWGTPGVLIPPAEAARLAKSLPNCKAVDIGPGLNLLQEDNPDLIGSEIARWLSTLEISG
# Protocol: The bacterial expression vector pRSET-A (Invitrogen) was used to recombinantly express HaloTag® (HT7; Promega).^7 The soluble 6×His-Tagged HaloTag® protein was affinity purified by immobilized metal affinity chromatography (IMAC) on a 5^−mL Fast Flow HiTrap Sepharose 6 column (Cytiva) with a 0-200 mM imidazole elution gradient using an ÄKTA Avant Protein Purification System (Cytiva).
# HaloTag® protein was used as a […] solution in 1× TBS. Absorption measurements were performed in 1.4^−mL semi-micro quartz cuvettes. A […] solution of HaloTag® ligand 65HTL or 91HTL was prepared in 10 mM HEPES, pH 7.3 containing 0.1 mg mL-1 CHAPS. An aliquot of HaloTag® protein (2 equiv, […] [HaloTag®]) was added. To examine chromogenicty (FIG. 5B, left panel), the resulting mixture was incubated until a consistent absorption signal/spectrum was observed (<60 min for 65HTL); an equivalent volume of 1× TBS blank was added to separate “−HT” samples in place of enzyme to record the ligand-only absorption. Spectra are averages (n=2). To compare rates of HaloTag® labeling (FIG. 5B, right panel) absorption at λabs (645 nm for 65HTL, 621 nm for 91HTL) was recorded at regular intervals (0.1 min, 0-5 min; 1 min, 5-120 min; 5 min, 2-24 h) immediately following addition of HaloTag® protein.
# [3] = tested on: U2OS cells stably expressing HaloTag®-histone H2B fusion protein; assay: Loading experiments using ligands 65HTL and 91HTL (JF552-HaloTag® ligand chase); format: cell-based; details: 200 nM, 0-4 h
# Protocol: U2OS cells (ATCC) and U2OS cells stably expressing an integrated HaloTag®-histone H2B fusion protein (U2OS·H2B·HaloTag®) were cultured in Dulbecco's modified Eagle medium (DMEM, phenol red-free; Life Technologies) supplemented with 10% (v/v) fetal bovine serum (FBS, Life Technologies), 1 mM GlutaMAX (Life Technologies) and maintained at 37° C. in a humidified 5% (v/v) CO2 environment. These cell lines undergo regular mycoplasma testing by the Janelia Cell Culture Facility. For mitochondrial imaging using the HaloTag® system, U2OS cells were transiently transfected using nucleofection (Lonza) with a plasmid constitutively expressing a HaloTag®-TOMM20 fusion protein, which is located on the outer mitochondrial membrane. […]
# For loading curve experiments, U2OS·H2B·HaloTag® stable cells were incubated with 200 nM 65HTL and 91HTL for 0-4 h at 37° C., washed 3× with dye-free media then chased with 200 nM JF552-HaloTag® ligand 15 for 30 min at 37° C., washed 3× with dye-free media and fixed with 4% paraformaldehyde in 0.1 M phosphate buffer, pH 7.4 for 15 min at 37° C. […] Fluorescence was quantified as the integrated density of nuclear signals from confocal image stack projections analyzed in FIJI;^82 n=100 nuclear signals per compound.
smiles,measurement,setting,value
"C=C/C=C(C=C)/[N+](C)=C1\C=CC2=C(c3c(F)c(C(=O)NCCOCCOCCCCCCCl)c(F)c(F)c3C(=O)[O-])c3ccc(N(C)c4ccccc4)cc3C(C)(C)C2=C1 [65HTL, JQ645-HaloTag® ligand]",FRET quenching of the JFX612 donor,[1],effective FRET quencher
same,HaloTag® labeling in vitro compared with 91HTL,[2]; absorbance vs. time upon addition to HaloTag® protein,substantially faster
same,ε of HaloTag® conjugate,[2]; after incubation with HaloTag® protein,"110,000 M^−1 cm^−1"
same,λabs used for HaloTag® labeling read-out,"[2]; ligand in 10 mM HEPES, pH 7.3 with CHAPS, HaloTag® protein added",645 nm
same,increase in absorptivity on incubation with HaloTag® protein,"[2]; ligand with 2 equiv HaloTag® protein, 10 mM HEPES, pH 7.3",47 fold
same,HaloTag® labeling in cells compared with 91HTL,[3],substantially faster
